Values after ≈ are worked out from the molar mass of the structure shown. “Also recorded” adds a separate entry of the source. Where two headings read alike, the source gives them in different places.
How the values were obtained:
[1] = assay type: physicochemical; settings: methanol, DPBF trap, 450–470 nm, relative to riboflavin
HSV-1 virus-cell fusion = assay: HSV-1-based fusion assay; assay type: cell-based, herpes simplex virus-1; settings: for plaque numbers in fusion assay: Vero cells; for plaque size in fusion assay: Vero monolayers in presence of compound
Procedure: In the fusion assay, HSV-1 was attached to Vero cells at 4 °C, but virus–cell fusion was blocked due to the low temperature.
HSV-1 (100 PFU/mL) was then added to the cells and incubated at 4 °C for 2 h. After incubation, the cell monolayers were washed three times with ice-cold PBS to remove un-adsorbed virus, and fresh ice-cold medium containing the tested compounds (0, 0.08, 2, and 10 µM) was added to the cells and incubated for 2 h at 4 °C. After another 2 h incubation at 37 °C, the medium was aspirated, the cells were washed with PBS and fresh medium containing 1.5% carboxymethylcellulose was added to the cells.

HSV-1, strain MacIntyre [2] = assay: Photodynamic inactivation of HSV-1 (virus treated with compound, plaque assay); assay type: cell-based, herpes simplex virus-1; settings: for EC50: Human alphaherpesvirus 1, 10 min, HSV-1 10^4 PFU/mL, plaque assay
HSV-1, strain MacIntyre [3] = assay: HSV-1 titer reduction assay in Vero cells; settings: 10 µM, 48 h; for viral replication and spread in HSV-1-infected Vero cell culture: inside cell culture (Figure 6C); for anti-HSV-1 activity in Vero cells: viral titer in medium supernatant
VSV Indiana strain = assay: microbe, parasite or virus in culture; assay type: cell-based, vesicular stomatitis Indiana virus; settings: Vesicular stomatitis virus, HEK-293T, 1 h, read-out: VSV, EC50
HSV-1 envelope = HSV-1 envelope interaction studies (intercalation assay); assay type: cell-based, herpes simplex virus-1; settings: 2 and 10 µM, pre-incubation at 37 °C, Vero cells
[4] = Solubilization in 15% DMSO in water; settings: for solubility: aqueous with cosolvent or surfactant or cyclodextrin, kinetic from dmso stock
Procedure: To perform this measurement, the compound was dissolved in DMSO and then diluted with water to achieve a solution containing 15% DMSO. The solution was centrifuged, and the resulting supernatant was lyophilized (evaporated) to dryness. Subsequently, the dry residue was dissolved in DMSO, and the concentration of the compound dissolved in DMSO was determined spectrophotometrically.
The mixtures were then centrifuged at 20,000 rcf for 5 min; 500 μL of the supernatant were collected and lyophilized; 76 µL of DMSO were added to the dry residue, and the absorbance was measured at the maximum absorption wavelength for compounds in solutions diluted 200 times with methanol. The data obtained were recalculated according to the law of dilutions and Beer’s law to obtain the initial concentrations of the compounds solubilized in 15% DMSO in water.

[5] = Light-induced cytotoxicity (photocytotoxicity) in Vero cells; assay type: cell-based, African Green Monkey; settings: African green monkey, Vero cells; blue light 465–480 nm, 10 min, then 48 h; read-out: cell viability of Vero cells after irradiation
Procedure: (§1) Subsequently, cells treated with the compounds were irradiated with LEDs (465–480 nm, 30 mW/cm^2) for 10 min at RT. As a negative control, compound-treated cells were incubated for 10 min in daylight at RT. Then, both the irradiated and non-irradiated cell monolayers were incubated at 37 °C in the dark for 48 h. Subsequently, the cell culture medium was aspirated and the cytotoxicity of the tested perylene derivatives was determined based on cell viability using Cell Counting Kit-8 (Dojindo Molecular Technologies, Munich, Germany) according to the manufacturer’s instructions. Note: all manipulation with samples was performed in daylight (Figure 7K).

Vero cells = assay: as above; assay type: cell-based, African Green Monkey; settings: blue light 10 min vs daylight, 0–10 µM, 48 h
Procedure: as §1

[6] = 10 min in daylight, read-out: EC50 (µM) in Daylight
[7] = blue light 465–480 nm, 30 mW/cm^2, 10 min, read-out: EC50 (µM) under Blue Light

Row | Compound | 1O2 Quantum Yield [1] [%] | plaque numbers in fusion assay (HSV-1 virus-cell fusion; 0.08 µM) | plaque size in fusion assay (HSV-1 virus-cell fusion) | plaque numbers in fusion assay (HSV-1 virus-cell fusion; most pronounced at 2 and 10 µM) | Decrease in EC50 (Fold) (HSV-1, strain MacIntyre [2]) [fold] | EC50 (HSV-1, strain MacIntyre [2]; [6]) [µM] | EC50 (HSV-1, strain MacIntyre [2]; [7]) [µM] | viral replication and spread in HSV-1-infected Vero cell culture (HSV-1, strain MacIntyre [3]) | anti-HSV-1 activity in Vero cells (HSV-1, strain MacIntyre [3]) | EC50 (VSV Indiana strain) [µM] | plaque formation after pretreatment of HSV-1 (HSV-1 envelope) | solubility in 15% DMSO in water [4] | solubility [4] [µM] | viability at 48 h [5] [%] | photocytotoxicity to Vero cells (Vero cells)
1 | CCCCc1ccc2c3cccc4c(C#Cc5cn([C@H]6C[C@H](O)[C@@H](CO)O6)c(=O)[nH]c5=O)ccc(c5cccc1c52)c43 [Compound 11a, 5-[9(10)-Butylperylen-3-ylethynyl]-deoxy-uridine] | 23.6 ± 1.4 | plaque numbers were similar to controls | significantly smaller plaques | reduction in plaque numbers | 18.6 | 1.83 | 0.098 | did not suppress viral replication and spread | completely inhibited viral replication; also recorded: higher antiviral potency compared to acyclovir | 0.5 ± 0.1 | completely inhibited the ability of the virus to form plaques | relatively high solubility | 0.51 (≈ 0.285 µg/mL) |  | 
2 | CCCCc1ccc2c3cccc4c(C#Cc5cn([C@@H]6O[C@H](CO)[C@@H](O)[C@@H]6O)c(=O)[nH]c5=O)ccc(c5cccc1c52)c43 [Compound 9a, 5-[9(10)-Butylperylen-3-ylethynyl]-arabino-uridine] | 31.9 ± 8.5 | plaque numbers were similar to controls | significantly smaller plaques | reduction in plaque numbers | 21.9 | 2.23 | 0.102 | did not suppress viral replication and spread | completely inhibited viral replication; also recorded: higher antiviral potency compared to acyclovir | 2 ± 1.8 | completely inhibited the ability of the virus to form plaques | relatively high solubility | 0.6 (≈ 0.345 µg/mL) | 115 to 128 | did not increase the cytotoxicity

— PMC10671050, “Alkyl Derivatives of Perylene Photosensitizing Antivirals: Towards Understanding the Influence of Lipophilicity” (International Journal of Molecular Sciences, 2023)
